Laboratory results reported in patent publication US8404696B2, “Quinazoline-2,4-dione derivative, and medical compositions for the prophylaxis and treatment of cranial nerve disease containing the same” (Shin Poong Pharmaceutical Co., Ltd., priority 2008, dated 2013).
Values after ≈ are worked out from the molar mass of the structure shown.

Key:
[1] = test system: superoxide dismutase (SOD); assay: Increase of superoxide dismutase (SOD) activity in mouse brain cells; format: cell-based; details: 100 μg/ml
Protocol: (§1) ROS inhibitory effect of compounds was represented to the dose suppressing 50% of production of reactive oxygen compared to control. […] The activity of superoxide dismutase (SOD) was measured by using a kit acquired in Sigma.

[2] = test system: pentylentetrazole (PTZ)-induced convulsion; assay: Anti-convulsant effect, pentylentetrazole (PTZ) test; format: in vivo; details: 10 mg/kg intraperitoneally, PTZ 80 mg/kg subcutaneously; for mortality rate / Induction percentage of convulsion: (animals/total); for mortality rate: negative control 70(17/23); for Induction percentage of convulsion: negative control 100(23/23); for Initiation time of convulsion: negative control 5.0 ± 0.7; for Duration of convulsion: negative control 46.7 ± 3.3
Outline: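 Compound was given intraperitoneally at 10 mg/kg before PTZ challenge. The read-outs were time to convulsion onset, time until convulsions fully disappeared, and mortality.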

thoracic aorta of rats = assay: Relaxing effect on thoracic aorta contracted by phenylephrine (organ bath); parameters: species or system rats of SD species; details: Rattus norvegicus; 67 μg/mL; phenylephrine 0.5 μM; mean n = 3; read-out: Relaxation percentage
Outline: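 Thoracic aortic rings (2 mm) from ether-anesthetized male SD rats (250-300 g) were mounted in Krebs buffer gassed with 95% O2/5% CO2 and equilibrated at 1.0 g basal tension for 90 min. After stable contraction with phenylephrine (0.5 μM), compounds were added and relaxation recorded.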

mouse brain cells = assay: Inhibitory effect on ROS production in brain cells (DCF-DA, NMDA-induced); format: cell-based; details: 24 h; dose suppressing 50% of production of reactive oxygen compared to control; mouse brain cells; read-out: ROS inhibitory effect ID50
Protocol: Oxidative stress was measured to test inhibitory effects on the production of reactive oxygen species (ROS) by using DCF-DA, which is a fluorescent probe. Brain cells were obtained from brain cortex of mouse to prepare cell solution with 2×10^6 cells/ml. Each brain cell was treated with 11 μM of DCF-DA followed by reaction in 37° C., 5% CO2 incubator for an hour. After washing twice, Compound 3 was treated with a concentration of 125 μg/ml and 250 μg/ml. At the same time, 300 μM of NMDA was treated and it was incubated in 37° C., 5% CO2 incubator for 24 hours.
as §1

[3] = test system: mixed culture of nerve cells-glial cells; assay: Protecting effect on NMDA-induced nerve cell death (LDH release); format: cell-based, ICR mouse; details: 100 μM NMDA, LDH release after 24 hours
Outline: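 Embryonic day-14 ICR mouse cortical neurons seeded on cortical glia, Ara-C-treated, then exposed at day 12–15 for 20 min to 100 μM NMDA with compound at 1 or 2 μg/mL. LDH released 24 h later measured colorimetrically as a cell-death index.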

SH-SY5Y cells = assay: Inhibitory effect on ZnSO4-mediated cytotoxicity (MTT assay); format: cell-based, humans; details: compound 50 μg/ml; 600 μM zinc sulfate, 24 hours
Protocol: SH-SY5Y cells were cultured with 3×10^4 cell concentration in 96 well plates, and the compound (50 μg/ml) was treated. After 30 minutes, 600 μM of zinc sulfate was treated to induce toxicity for 24 hours and survival rate of cells was measured by MTT assay.

[4] = test system: middle cerebral artery occlusion (MCAO) model; assay: Anti-stroke effect in middle cerebral artery occlusion (MCAO) model, oral administration before inducing stroke; format: in vivo, rats of SD species; details: 2 g/kg po; for Infarcted volume (Mean ± standard deviation): negative control 0.45 ± 0.03
[5] = treatment time 0 (right before inducing ischemic stroke)
[6] = treatment time 1 (an hour before inducing ischemic stroke)

Compound	Increase of SOD activity, compared to control [1]	mortality rate [2]	Induction percentage of convulsion [2]	Initiation time of convulsion [2] [min]	Duration of convulsion [2] [min]	inhibition at 67 µg/mL (thoracic aorta of rats) [%]	IC50 (mouse brain cells) [µg/mL]	Inhibitory effect of cell death by NMDA-induced excitable neurotoxicity ([3]; 1 μg/ml compound) [%]	Inhibitory effect of cell death by NMDA-induced excitable neurotoxicity ([3]; 2 μg/ml compound) [%]	inhibitory percentage, zinc-induced toxicity (SH-SY5Y cells) [%]	Inhibitory percentage compared to negative control [4, 5] [%]	Infarcted volume (Mean ± standard deviation) [4, 5] [cm^3]	Inhibitory percentage compared to negative control [4, 6] [%]	Infarcted volume (Mean ± standard deviation) [4, 6] [cm^3]
NCCCNCCCCNCCCn1c(=O)[nH]c2ccccc2c1=O [Compound 1, 3-{3-[4-(3-aminopropylamino)butylamino]propyl}-1H-quinazoline-2,4-dione]	0.7 ± 5.6	67(4/6) %	83(5/6) %	16.1 ± 9.0	43.9 ± 9.0	12.8	73 ± 14.1 (≈ 210 µM)	16.1	2.4					
CCCCCCN(CCCCN(CCCn1c(=O)[nH]c2ccccc2c1=O)C(=O)OC(C)(C)C)CCCn1c(=O)[nH]c2ccccc2c1=O [Compound 30, [3-(2,4-dioxo-1,4-dihydro-2H-quinazolin-3-yl)propyl]-(4-{[3-(2,4-dioxo-1,4-dihydro-2H-quinazolin-3-yl)propyl]hexylamino}butyl)carbamic acid tert-butyl ester]	6.2 ± 6.2	83(5/6) %	83(5/6) %	15.9 ± 9.0	44.1 ± 9.0	40.4	79.5 ± 15.7 (≈ 117 µM)	38.3	44.4					
O=c1[nH]c2ccccc2c(=O)n1CCCNCCCCNCCCn1c(=O)[nH]c2ccccc2c1=O [Compound 2, 3-(3-{4-[3-(2,4-dioxo-1,4-dihydro-2H-quinazolin-3-yl)propylamino]butylamino}propyl)-1H-quinazoline-2,4-dione]	2.8 ± 4.0	67(4/6) %	100(6/6) %	12.9 ± 3.7	35.7 ± 7.1	10.9		11.0	0.7	21.7 ± 4.1				
O=C(OCc1ccccc1)N(CCCCNCCCn1c(=O)[nH]c2ccccc2c1=O)CCCn1c(=O)[nH]c2ccccc2c1=O [Compound 39, [3-(2,4-dioxo-1,4-dihydro-2H-quinazolin-3-yl)propyl]-{4-[3-(2,4-dioxo-1,4-dihydro-2H-quinazolin-3-yl)propylamino]butyl}carbamic acid benzyl ester]	19.0 ± 6.3	0(0/6) %	100(6/6) %	9.5 ± 2.8	19.8 ± 6.4	54.8	32.3 ± 20 (≈ 51.5 µM)	30.8	17.1					
COCC(=O)N(CCCCNCCCn1c(=O)[nH]c2ccccc2c1=O)CCCn1c(=O)[nH]c2ccccc2c1=O [Compound 38, N-[3-(2,4-dioxo-1,4-dihydro-2H-quinazolin-3-yl)propyl]-N-{4-[3-(2,4-dioxo-1,4-dihydro-2H-quinazolin-3-yl)propylamino]butyl}-2-methoxyacetamide]	3.2 ± 4.9	17(1/6) %	83(5/6) %	16.0 ± 9.0	11.2 ± 7.3	88.2	136 ± 11 (≈ 241 µM)	33.5	13.5					
CS(=O)(=O)N(CCCCNCCCn1c(=O)[nH]c2ccccc2c1=O)CCCn1c(=O)[nH]c2ccccc2c1=O [Compound 12, N-[3-(2,4-dioxo-1,4-dihydro-2H-quinazolin-3-yl)propyl]-N-{4-[3-(2,4-dioxo-1,4-dihydro-2H-quinazolin-3-yl)propylamino]butyl}methansulfonamide]	2.8 ± 1.8	67(4/6) %	100(6/6) %	13.7 ± 6.2	39.3 ± 8.8	10.9		5.7	2.6	12.7 ± 4.3				
O=c1[nH]c2ccccc2c(=O)n1CCCNCC=CCNCCCn1c(=O)[nH]c2ccccc2c1=O [Compound 25, 3-(3-{4-[3-(2,4-dioxo-1,4-dihydro-2H-quinazolin-3-yl)propylamino]-2-butenylamino}propyl)-1H-quinazoline-2,4-dione]	1.6 ± 9.3	83(5/6) %	100(6/6) %	6.2 ± 1.5	48.3 ± 5.9	20	104 ± 32.5 (≈ 212 µM)	35.2	28.8					
C[N+](C)(C)CCOP(=O)(O)OP(=O)([O-])OC[C@H]1O[C@@H](n2ccc(N)nc2=O)[C@H](O)[C@@H]1O [Citicoline, reference compound]											37.8	0.28 ± 0.04	51.1	0.22 ± 0.03
O=C1CCC(=O)N1CCCNCCCCNCCCn1c(=O)[nH]c2ccccc2c1=O [Compound 42, 3-(3-{4-[3-(2,5-dioxo-pyrrolidine-1-yl)propylamino]butylamino}propyl)-1H-quinazoline-2,4-dione]	1.6 ± 2.6	17(1/6) %	100(6/6) %	9.8 ± 4.1	18.2 ± 8.6	14.6	138 ± 21 (≈ 321 µM)	24.6	21.8					
Cc1ccc(S(=O)(=O)N(CCCCN(CCCn2c(=O)[nH]c3ccccc3c2=O)S(=O)(=O)c2ccc(C)cc2)CCCn2c(=O)[nH]c3ccccc3c2=O)cc1 [Compound 41, N-[3-(2,4-dioxo-1,4-dihydro-2H-quinazolin-3-yl)propyl]-N-(4-{[3-(2,4-dioxo-1,4-dihydro-2H-quinazolin-3-yl)propyl]-4-methylbenzenesulfonylamino}butyl)-4-methylbenzenesulfonamide]	2.0 ± 0.9					7.1	27.2 ± 18.6 (≈ 34 µM)		28.5					
O=c1[nH]c2ccccc2c(=O)n1CCNCCCNCCn1c(=O)[nH]c2ccccc2c1=O [Compound 23, 3-(2-{3-[2-(2,4-dioxo-1,4-dihydro-2H-quinazolin-3-yl)ethylamino]propylamino}ethyl)-1H-quinazoline-2,4-dione]	4.0 ± 10	33(2/6) %	100(6/6) %	9.3 ± 2.5	28.7 ± 8.6	20.4	55.5 ± 27.2 (≈ 123 µM)	36.0	32.2					
O=C(N(CCCCN(CCCn1c(=O)[nH]c2ccccc2c1=O)C(=O)C(F)(F)F)CCCn1c(=O)[nH]c2ccccc2c1=O)C(F)(F)F [Compound 37, N-[3-(2,4-dioxo-1,4-dihydro-2H-quinazolin-3-yl)propyl]-N-{4-[[3-(2,4-dioxo-1,4-dihydro-2H-quinazolin-3-yl)propyl]-(2,2,2-trifluoroacetyl)amino]butyl}-2,2,2-trifluoroacetamide]	2.0 ± 5.8					7.9	22.9 ± 17.3 (≈ 33.5 µM)	27.3	25.0					
